Assay results published in patent publication US8946215B2, “Hydroxy-substituted imidazo[1,2-a]pyridinecarboxamides and their use” (Bayer Pharma Aktiengesellschaft, priority 2012, dated 2015).
Structures can show the parent of a compound that is named as a salt.

Molecular target: T1, recombinant guanylate cyclase reporter cell line (Rattus norvegicus, UniProt P19686+P20595)
T1 construct: expressed in transfected cells
T1 sequence (P20595 1-619): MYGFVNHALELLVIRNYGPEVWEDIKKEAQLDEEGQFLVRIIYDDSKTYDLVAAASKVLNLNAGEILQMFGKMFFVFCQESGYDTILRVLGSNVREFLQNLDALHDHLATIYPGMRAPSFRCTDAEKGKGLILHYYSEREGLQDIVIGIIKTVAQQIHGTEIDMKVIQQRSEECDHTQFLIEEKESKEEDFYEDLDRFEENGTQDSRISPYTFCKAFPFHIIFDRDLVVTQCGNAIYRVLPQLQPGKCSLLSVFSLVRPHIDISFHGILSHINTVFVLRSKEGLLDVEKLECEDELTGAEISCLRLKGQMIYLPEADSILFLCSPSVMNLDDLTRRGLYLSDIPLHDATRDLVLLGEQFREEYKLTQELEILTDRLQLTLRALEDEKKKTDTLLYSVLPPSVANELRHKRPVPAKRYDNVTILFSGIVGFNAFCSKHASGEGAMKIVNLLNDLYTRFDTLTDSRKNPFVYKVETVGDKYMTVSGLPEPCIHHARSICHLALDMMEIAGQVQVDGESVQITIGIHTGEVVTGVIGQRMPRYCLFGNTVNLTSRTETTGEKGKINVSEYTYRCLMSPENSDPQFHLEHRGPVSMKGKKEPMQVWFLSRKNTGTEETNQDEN
T1 sequence (P19686 1-690): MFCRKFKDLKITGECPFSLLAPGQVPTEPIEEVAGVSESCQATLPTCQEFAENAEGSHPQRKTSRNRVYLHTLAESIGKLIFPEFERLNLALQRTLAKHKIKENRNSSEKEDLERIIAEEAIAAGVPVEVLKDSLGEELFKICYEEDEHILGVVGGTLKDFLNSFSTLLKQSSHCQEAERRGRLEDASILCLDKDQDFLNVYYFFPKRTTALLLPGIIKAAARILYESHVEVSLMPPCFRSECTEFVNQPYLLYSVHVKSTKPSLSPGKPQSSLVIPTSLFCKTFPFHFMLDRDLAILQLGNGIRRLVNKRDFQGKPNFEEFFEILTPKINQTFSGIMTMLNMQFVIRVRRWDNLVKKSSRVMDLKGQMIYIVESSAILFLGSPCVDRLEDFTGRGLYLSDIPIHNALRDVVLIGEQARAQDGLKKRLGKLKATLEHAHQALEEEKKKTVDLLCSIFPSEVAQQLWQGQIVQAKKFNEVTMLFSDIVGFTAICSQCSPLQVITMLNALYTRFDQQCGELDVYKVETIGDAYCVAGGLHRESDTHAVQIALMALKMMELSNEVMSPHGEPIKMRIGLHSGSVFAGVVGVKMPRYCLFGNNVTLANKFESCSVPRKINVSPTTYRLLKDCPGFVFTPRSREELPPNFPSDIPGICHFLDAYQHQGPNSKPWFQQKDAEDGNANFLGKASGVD
Test: Action on recombinant guanylate cyclase reporter cell line
Format: cell-based
Conditions: in some cases mean values obtained from individual determinations
Procedure: B-2. Action on Recombinant Guanylate Cyclase Reporter Cell Line
The cellular action of the compounds according to the invention is determined on a recombinant guanylate cyclase reporter cell line, as described in F. Wunder et al., Anal. Biochem. 339, 104-112 (2005).
Representative values (MEC=minimal effective concentration) for the compounds according to the invention are shown in the following table (in some cases as mean values obtained from individual determinations): […]

Compared with `Cc1cc(OCc2ncccc2F)c2nc(C)c(C(=O)NC(CCC(O)C(F)(F)F)C(C)(C)O)n2c1` (mixture of isomers) [Example 195, 8-[(3-fluoropyridin-2-yl)methoxy]-2,6-dimethyl-N-(7,7,7-trifluoro-2,6-dihydroxy-2-methylheptan-3-yl)imidazo[1,2-a]pyridine-3-carboxamide (stereoisomer mixture)], `Cc1nc2c(OCc3c(F)cccc3F)cccn2c1C(=O)NC(CCC(F)(F)F)C(C)(C)O` (racemic) [Example 149, rac-8-[(2,6-difluorobenzyl)oxy]-2-methyl-N-(6,6,6-trifluoro-2-hydroxy-2-methylhexan-3-yl)imidazo[1,2-a]pyridine-3-carboxamide] is 100-fold lower in “MEC (minimal effective concentration)” value: 10 µM for the first, 0.1 µM for the second.

First: Cc1nc2c(OCc3c(F)cccc3F)cccn2c1C(=O)NC1CCC(O)CC1 (racemic) [Example 42, (rac)-8-[(2,6-difluorobenzyl)oxy]-N-(trans-4-hydroxycyclohexyl)-2-methylimidazo[1,2-a]-pyridine-3-carboxamide]
Second: Cc1nc2c(OCc3c(F)cccc3F)cccn2c1C(=O)NCC(O)C(F)(F)F (racemic) [Example 106, rac-8-[(2,6-difluorobenzyl)oxy]-2-methyl-N-(3,3,3-trifluoro-2-hydroxypropyl)imidazo[1,2-a]pyridine-3-carboxamide trifluoroacetate]
The “MEC (minimal effective concentration)” value of the first is 3.3-fold higher: 1.0 µM for the first, 0.3 µM for the second.

`CCC(CO)NC(=O)c1c(C)nc2c(OCC3CCCCC3)cccn12` (racemic) [Example 69, (rac)-8-(cyclohexylmethoxy)-N-(1-hydroxybutan-2-yl)-2-methylimidazo)[1,2-a]pyridine-3-carboxamide formate] and `C=CCC(CO)NC(=O)c1c(C)nc2c(OCC3CCCCC3)cccn12` (racemic) [Example 70, (rac)-8-(cyclohexylmethoxy)-N-(1-hydroxypent-4-en-2-yl)-2-methylimidazo[1,2-a]pyridine-3-carboxamide] are the same in “MEC (minimal effective concentration)” value: 0.1 µM for the first, 0.1 µM for the second.

Going from `Cc1nc2c(OCC3CCCCC3)cccn2c1C(=O)N[C@H]1CCC[C@@H]1O` (racemic) [Example 71, (rac)-8-(cyclohexylmethoxy)-N-[trans-2-hydroxycyclopentyl]-2-methylimidazo[1,2-a]-pyridine-3-carboxamide] to `Cc1nc2c(OCC3CCCCC3)cccn2c1C(=O)N[C@@H]1CCCC[C@H]1O` (racemic) [Example 78, (rac)-8-(cyclohexylmethoxy)-N-[(trans)-2-hydroxycyclohexyl]-2-methylimidazo[1,2-a]-pyridine-3-carboxamide], the “MEC (minimal effective concentration)” value rises from 0.1 µM to 0.3 µM (3-fold).

Going from `Cc1nc2c(OCc3c(F)cccc3F)cccn2c1C(=O)NC(CO)CC(F)(F)F` (racemic) [Example 100, rac-8-[(2,6-Difluorobenzyl)oxy]-2-methyl-N-(4,4,4-trifluoro-hydroxybutan-2-yl)imidazo[1,2-a]-pyridine-3-carboxamide trifluoroacetate] to `Cc1nc2c(OCc3c(F)cccc3F)cccn2c1C(=O)NC(CO)CCC(F)(F)F` (racemic) [Example 101, rac-8-[(2,6-difluorobenzyl)oxy]-2-methyl-N-(5,5,5-trifluoro-1-hydroxypentan-2-yl)-imidazo[1,2-a]pyridine-3-carboxamide trifluoroacetate], the “MEC (minimal effective concentration)” value rises from 0.03 µM to 0.1 µM (3.3-fold).

Compared with `Cc1nc2c(OCc3c(F)cccc3F)cccn2c1C(=O)NC(CO)c1ccc(F)cc1` (racemic) [Example 103, rac-8-[(2,6-difluorobenzyl)oxy]-N-[1-(4-fluorophenyl)-2-hydroxyethyl]-2-methylimidazo[1,2-a]pyridine-3-carboxamide trifluoroacetate], `Cc1nc2c(OCc3c(F)cccc3F)cccn2c1C(=O)NC(CO)c1ccc(S(C)(=O)=O)cc1` (racemic) [Example 120, rac-8-[(2,6-difluorobenzyl)oxy]-N-{2-hydroxy-1-[4-(methylsulphonyl)phenyl]ethyl}-2-methylimidazo[1,2-a]pyridine-3-carboxamide] is 10-fold higher in “MEC (minimal effective concentration)” value: 0.1 µM for the first, 1.0 µM for the second.

First: Cc1nc2c(OCc3c(F)cccc3F)cccn2c1C(=O)NC(CO)C(F)(F)F (racemic) [Example 110, rac-8-[(2,6-Difluorobenzyl)oxy]-2-methyl-N-(1,1,1-trifluoro-3-hydroxypropan-2-yl)imidazo[1,2-a]pyridine-3-carboxamide]
Second: Cc1nc2c(OCc3c(F)cccc3F)cccn2c1C(=O)NC(CO)CC(F)(F)F (racemic) [Example 113, rac-8-[(2,6-Difluorobenzyl)oxy]-2-methyl-N-(4,4,4-trifluoro-1-hydroxybutan-2-yl)imidazo[1,2-a]-pyridine-3-carboxamide]
The “MEC (minimal effective concentration)” value of the first is 10-fold higher: 0.3 µM for the first, 0.03 µM for the second.

`Cc1nc2c(OCc3c(F)cccc3F)cccn2c1C(=O)NC(CO)CCCC(F)(F)F` (racemic) [Example 114, rac-8-[(2,6-difluorobenzyl)oxy]-2-methyl-N-(6,6,6-trifluoro-1-hydroxyhexan-2-yl)imidazo[1,2-a]pyridine-3-carboxamide] and `Cc1nc2c(OCc3c(F)cccc3F)cccn2c1C(=O)NC(CCCC(F)(F)F)C(C)(C)O` (racemic) [Example 150, rac-8-[(2,6-difluorobenzyl)oxy]-2-methyl-N-(7,7,7-trifluoro-2-hydroxy-2-methylheptan-3-yl)imidazo[1,2-a]pyridine-3-carboxamide] are the same in “MEC (minimal effective concentration)” value: 0.03 µM for the first, 0.03 µM for the second.

`Cc1nc2c(OCc3c(F)cccc3F)cccn2c1C(=O)NC(CO)c1ccccn1` (racemic) [Example 119, rac-8-[(2,6-difluorobenzyl)oxy]-N-[2-hydroxy-1-(pyridin-2-yl)ethyl]-2-methylimidazo[1,2-a]-pyridine-3-carboxamide] and `Cc1nc2c(OCc3c(F)cccc3F)cccn2c1C(=O)NC(CO)c1cccnc1` (racemic) [Example 124, rac-8-[(2,6-Difluorobenzyl)oxy]-N-[2-hydroxy-1-(pyridin-3-yl)ethyl]-2-methylimidazo[1,2-a]-pyridine-3-carboxamide] are the same in “MEC (minimal effective concentration)” value: 0.3 µM for the first, 0.3 µM for the second.

`Cc1nc2c(OCc3c(F)cccc3F)cccn2c1C(=O)NC(c1ccc(Cl)cc1)C(C)(C)O` (racemic) [Example 151, rac-N-[1-(4-chlorophenyl)-2-hydroxy-2-methylpropyl]-8-[(2,6-difluorobenzyl)oxy]-2-methylimidazo[1,2-a]pyridine-3-carboxamide] and `Cc1nc2c(OCc3c(F)cccc3F)cccn2c1C(=O)NC(c1ccc(F)cc1)C(C)(C)O` (racemic) [Example 152, rac-8-[(2,6-difluorobenzyl)oxy]-N-[1-(4-fluorophenyl)-2-hydroxy-2-methylpropyl]-2-methylimidazo[1,2-a]pyridine-3-carboxamide] are the same in “MEC (minimal effective concentration)” value: 0.3 µM for the first, 0.3 µM for the second.

`CCOCC(CO)NC(=O)c1c(C)nc2c(OCc3c(F)cccc3F)cccn12` (racemic) [Example 160, rac-8-[(2,6-Difluorobenzyl)oxy]-N-(1-ethoxy-3-hydroxypropan-2-yl)-2-methylimidazo[1,2-a]-pyridine-3-carboxamide] and `CCCOCC(CO)NC(=O)c1c(C)nc2c(OCc3c(F)cccc3F)cccn12` (racemic) [Example 162, rac-8-[(2,6-Difluorobenzyl)oxy]-N-(1-hydroxy-3-propoxypropan-2-yl)-2-methylimidazo[1,2-a]-pyridine-3-carboxamide] are the same in “MEC (minimal effective concentration)” value: 0.3 µM for the first, 0.3 µM for the second.

Same assay, conditions: in some cases mean values obtained from individual determinations, trifluoroacetate

In the case of `Cc1nc2c(OCc3c(F)cccc3F)cccn2c1C(=O)NC(CO)CCCC(F)(F)F` (racemic) [Example 102, rac-8-[(2,6-difluorobenzyl)oxy]-2-methyl-N-(6,6,6-trifluoro-1-hydroxyhexan-2-yl)-imidazo[1,2-a]pyridine-3-carboxamide trifluoroacetate], the “MEC (minimal effective concentration)” value is reported as 0.1 µM.
